Measured values: EP3414229B1, “QUINOLINONE LYSYL OXIDASE-LIKE 2 INHIBITORS AND USES THEREOF” (Pharmakea, Inc., priority 2016, dated 2017)

target: T1, human LOXL2 (Homo sapiens, UniProt Q9Y4K0); experiment: Human LOXL2 Amine Oxidase Activity Assay (Amplex Red fluorescence); assay type: biochemical; conditions: concentrated conditioned media from CHO cells stably expressing human LOXL2; 2h at 37 °C with test compound; DAP substrate
T1 construct: expressed in transfected cells; 10-20X concentrated conditioned media used as the enzyme source
T1 sequence (Q9Y4K0 26-774): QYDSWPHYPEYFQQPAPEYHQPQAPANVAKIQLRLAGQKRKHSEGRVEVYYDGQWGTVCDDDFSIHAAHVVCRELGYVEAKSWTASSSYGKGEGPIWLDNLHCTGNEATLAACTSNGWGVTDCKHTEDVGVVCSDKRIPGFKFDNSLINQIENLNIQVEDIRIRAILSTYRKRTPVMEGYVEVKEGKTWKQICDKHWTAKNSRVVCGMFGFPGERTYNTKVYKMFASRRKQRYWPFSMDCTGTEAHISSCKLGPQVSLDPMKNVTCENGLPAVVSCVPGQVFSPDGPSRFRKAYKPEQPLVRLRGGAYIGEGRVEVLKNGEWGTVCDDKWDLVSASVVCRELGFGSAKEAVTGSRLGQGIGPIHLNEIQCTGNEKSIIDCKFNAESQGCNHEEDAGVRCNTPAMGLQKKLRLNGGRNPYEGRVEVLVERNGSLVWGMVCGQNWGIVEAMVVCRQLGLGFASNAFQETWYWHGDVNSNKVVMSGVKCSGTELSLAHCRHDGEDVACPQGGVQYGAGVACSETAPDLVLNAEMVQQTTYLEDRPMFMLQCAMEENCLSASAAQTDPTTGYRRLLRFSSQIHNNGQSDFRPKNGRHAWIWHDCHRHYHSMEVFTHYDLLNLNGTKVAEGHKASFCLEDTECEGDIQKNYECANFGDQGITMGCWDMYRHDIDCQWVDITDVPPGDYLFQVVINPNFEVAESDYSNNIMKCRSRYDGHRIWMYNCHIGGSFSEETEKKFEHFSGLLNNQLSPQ
Procedure: Example B-1: Human LOXL2 Amine Oxidase Activity Assay
LOXL2 amine oxidase activity is evaluated by measuring Amplex Red fluorescence using 10-20X concentrated conditioned media from CHO cells stably expressing human LOXL2. To assay for amine oxidase activity, 10 µL of the concentrated conditioned media is incubated with 2 µL of test compound in DMSO and 73 µL Assay Buffer (50 mM Borate Buffer, pH8) for 2h at 37 °C. After the 2h incubation, 5 ul of 10 mM 1,5-Diaminopentane (DAP) diluted in Assay Buffer and 10 µl of Amplex Red Mix (8.5 µl Assay Buffer + 0.5 µl of 10 mM Amplex Red + 1 µl of 500 U/ml Horseradish Peroxidase) are added and the plate mixed and immediately placed on the FlexStaion for fluorescence measurements. Fluorescence is read in kinetic mode every 2 min for 1 hour at excitation = 544 and emission = 590. The amine oxidase activity is calculated from the slope of the linear portion of the curve.

`NCc1cc(=O)c2ccccc2[nH]1` [Compound 1-1, 2-(Aminomethyl)quinolin-4(1H)-one] and `NCc1cc(=O)c2cc(Br)ccc2[nH]1` [Compound 1-3, 2-(Aminomethyl)-6-bromoquinolin-4(1H)-one] cannot be ordered by IC50: less than 300 nM for the first, less than 300 nM for the second.

Going from `Cn1c(CN)cc(=O)c2ccccc21` [Compound 1-2, 2-(Aminomethyl)-1-methylquinolin-4(1H)-one] to `Cn1cc(-c2ccc3[nH]c(CN)cc(=O)c3c2)cn1` [Compound 1-47, 2-(Aminomethyl)-6-(1-methyl-1H-pyrazol-4-yl)quinolin-4(1H)-one], the IC50 falls from greater than 1000 nM to less than 300 nM.

`C#Cc1ccc2[nH]c(CN)cc(=O)c2c1` [Compound 1-4, 2-(Aminomethyl)-6-ethynylquinolin-4(1H)-one] and `COc1ccc2[nH]c(CN)cc(=O)c2c1` [Compound 1-9, 2-(Aminomethyl)-6-methoxyquinolin-4(1H)-one] cannot be ordered by IC50: less than 300 nM for the first, less than 300 nM for the second.

`NCc1cc(=O)c2cc(-c3ccccc3)ccc2[nH]1` [Compound 1-5, 2-(Aminomethyl)-6-phenylquinolin-4(1H)-one] and `NCc1cc(=O)c2cc(Oc3ccccc3)ccc2[nH]1` [Compound 1-21, 2-(Aminomethyl)-6-phenoxyquinolin-4(1H)-one] cannot be ordered by IC50: less than 300 nM for the first, less than 300 nM for the second.

`NCc1cc(=O)c2cc(-c3cn(-c4ccccc4)nn3)ccc2[nH]1` [Compound 1-6, 2-(Aminomethyl)-6-(1-phenyl-1H-1,2,3-triazol-4-yl)quinolin-4(1H)-one] and `NCc1cc(=O)c2cc(C#Cc3ccccc3)ccc2[nH]1` [Compound 1-7, 2-(Aminomethyl)-6-(phenylethynyl)quinolin-4(1H)-one] cannot be ordered by IC50: less than 300 nM for the first, less than 300 nM for the second.

`NCc1cc(=O)c2cc(-n3cccn3)ccc2[nH]1` [Compound 1-8, 2-(Aminomethyl)-6-(1H-pyrazol-1-yl)quinolin-4(1H)-one] and `Cc1ccc(=O)n(-c2ccc3[nH]c(CN)cc(=O)c3c2)c1` [Compound 1-46, 2-(Aminomethyl)-6-(5-methyl-2-oxopyridin-1(2H)-yl)quinolin-4(1H)-one] cannot be ordered by IC50: less than 300 nM for the first, less than 300 nM for the second.

`NCc1cc(=O)c2cc(-c3ccc(F)cc3)ccc2[nH]1` [Compound 1-11, 2-(Aminomethyl)-6-(4-fluorophenyl)quinolin-4(1H)-one] and `NCc1cc(=O)c2cc(-c3ccc(F)cc3Cl)ccc2[nH]1` [Compound 1-70, 2-(Aminomethyl)-6-(2-chloro-4-fluorophenyl)quinolin-4(1H)-one] cannot be ordered by IC50: less than 300 nM for the first, less than 300 nM for the second.

`NCc1cc(=O)c2cc(-c3cncnc3)ccc2[nH]1` [Compound 1-40, 2-(Aminomethyl)-6-(pyrimidin-5-yl)quinolin-4(1H)-one] and `NCc1cc(=O)c2cc(-c3cnc(C(F)(F)F)nc3)ccc2[nH]1` [Compound 1-77, 2-(Aminomethyl)-6-(2-(trifluoromethyl)pyrimidin-5-yl)quinolin-4(1H)-one] cannot be ordered by IC50: less than 300 nM for the first, less than 300 nM for the second.

`NCc1cc(=O)c2cc(-c3cccc4cccnc34)ccc2[nH]1` [Compound 1-65, 2-(Aminomethyl)-[6,8'-biquinolin]-4(1H)-one] and `NCc1cc(=O)c2cc(-c3cncc(OCc4ccccc4)c3)ccc2[nH]1` [Compound 1-66, 2-(Aminomethyl)-6-(5-(benzyloxy)pyridin-3-yl)quinolin-4(1H)-one] cannot be ordered by IC50: less than 300 nM for the first, less than 300 nM for the second.

`COc1ccc(-c2ccc3[nH]c(CN)cc(=O)c3c2)cc1F` [Compound 1-72, 2-(Aminomethyl)-6-(3-fluoro-4-methoxyphenyl)quinolin-4(1H)-one] and `NCc1cc(=O)c2cc(-c3ccc(C(F)(F)F)nc3)ccc2[nH]1` [Compound 1-74, 2-(Aminomethyl)-6-(6-(trifluoromethyl)pyridin-3-yl)quinolin-4(1H)-one] cannot be ordered by IC50: less than 300 nM for the first, less than 300 nM for the second.

`COCCOc1ccc2[nH]c(CN)cc(=O)c2c1` [Compound 1-78, 2-(Aminomethyl)-6-(2-methoxyethoxy)quinolin-4(1H)-one] showed an IC50 of less than 300 nM.

tested on: C57B1/6 male mice; experiment: Mouse Oropharyngeal Bleomycin Model of Lung Fibrosis; assay type: in vivo; conditions: dosed prophylactically at 60 mg/kg p.o.
Procedure: Example B-3: Mouse Oropharyngeal Bleomycin Model of Lung Fibrosis
Lung fibrosis is induced in C57B1/6 male mice by administering bleomycin (0.1-4 U/kg) via oropharyngeal instillation. Mice are either pretreated with vehicle or test compound (1 day to 1 hour) orally, intraperitoneally, intravenously or subcutaneously before bleomycin installation (prophylactic dosing) or 7-14 days post bleomycin instillation (therapeutic dosing). The route and frequency of dosing are based on previously determined pharmacokinetic properties for the LOXL2 inhibitor in mouse. After bleomycin instillation animals are monitored daily for weight loss and clinical signs for 14-28 days prior to sacrifice. […] For histological examination, lung slices are stained with Masson's trichrome or Picro-Sirius red to measure cross-linked collagen as an indicator of fibrosis and an Ashcroft score of lung fibrotic and inflammatory damage determined. In addition, immunohistochemistry of fibrotic proteins such as a-smooth muscle actin can be recorded. […] After the acid hydrolysis, 25-100 µl of the supernatant is dried down, resuspended in 25 µl water and the hydroxyproline content determined by the addition of 0.5 ml Chloramine T solution (140 mg Chloramine T in 6.5 ml ddH20 + 1 ml n-propanol + 2.5 ml 1M sodium acetate) and incubation at room temperature for 20 min. […]

With `NCc1cc(=O)c2cc(Br)ccc2[nH]1` [Compound 1-3, 2-(Aminomethyl)-6-bromoquinolin-4(1H)-one] the “efficacy in bleomycin model of lung fibrosis” value was “efficacious”.
